Results from patent publication US6890736B1, “Methods for producing proteins in cultured cells” (Immunex Corporation, priority 2002, dated 2005).

Legend:
Assay type in all cases: cell-based, Chinese hamster
[1] = test system: cell line 25H9 (CHO cells that produce IL-1R-II protein); assay: Example 3: induction with 5-bromo-2′-deoxycytidine 5′-monophosphate, IL-1R-II production; settings: 31° C., 10 μM
Protocol: (§1) About 2×10^6 cells of cell line 25H9 were inoculated into 30 milliliters of serum-free medium and incubated at the temperatures indicated in Table 1 in vented shake flasks. At the times indicated in Table 1, samples were taken from each flask to determine IL-1R-II titer, cell number, and cell viability. IL-1R-II protein titer was determined by ELISA assay. Cell number was determined by counting cells in a hemocytometer. Cell viability was determined by trypan blue staining and counting stained cells in a hemocytometer. Cumulative viable cell density (CVCD) is the area under the curve of a plot of the viable cell density versus time (in units of cells/ml/day). Productivity (pg of IL-1R-II/cell/day) was determined by dividing the protein titer on a particular day by the CVCD on the same day. Cells were fed with amino acids on days 2 and 5, and dextrose was added periodically in order to maintain levels above 2.0 g/L. All samples were done in duplicate, and the data shown is an average value.
The following experiment compares the effects of 5-bromo-2′-deoxycytidine 5′-monophosphate and 5-aza-2′-deoxycytidine on induction of protein production. The experiment was done as described in Example 1 with the following exceptions. All cultures were incubated at 31° C., and cell number and viability were determined using a Guava PCA Cytometer (available from Guava Technologies, Hayward, Calif., USA). Samples were done in triplicate.

[2] = Example 1: cell number (hemocytometer) and viability (trypan blue); settings: Chinese hamster; for viability at 0 day, 1 μM / viability at 3 day, 1 μM / viability at 5 day, 1 μM / viability at 7 day, 1 μM / viability at 10 day, 1 μM: 1 μM decitabine; for viability at 0 day, 1 μM / viability at 0 day, 5 μM / viability at 0 day, 10 μM: day 0; for viability at 3 day, 1 μM / viability at 3 day, 5 μM / viability at 3 day, 10 μM: day 3; for viability at 5 day, 1 μM / viability at 5 day, 5 μM / viability at 5 day, 10 μM: day 5; for viability at 7 day, 1 μM / viability at 7 day, 5 μM / viability at 7 day, 10 μM: day 7; for viability at 0 day, 5 μM / viability at 3 day, 5 μM / viability at 5 day, 5 μM / viability at 7 day, 5 μM / viability at 10 day, 5 μM: 5 μM decitabine
Protocol: (§2) The following experiment was designed to test whether decitabine can induce the production of a protein, in this case a recombinant soluble form of the human interleukin 1 receptor type II (IL-1-R-II), at either 31° C. or 34° C. Soluble versions of IL-1R-II and methods for producing it are described in U.S. Pat. No. 5,767,064. DNA encoding a soluble form of the human IL-1R-II was inserted into pG3.6, which is described in Morris et al. ((1998), Cytotechnology 28:9-17). This construct was used to transfect CHO cells to produce cell lines, including 25H9, that produce IL-1R-II protein.
as §1

[3] = test system: cell line 25H9 (CHO cells); assay: as above
Protocol: as §2, §1

[4] = 31° C., 10 μM decitabine, day 10
[5] = 31° C., 1 μM decitabine, day 10
[6] = 31° C., 5 μM decitabine, day 10
[7] = 31° C., 10 μM decitabine, day 0
[8] = 31° C., 10 μM decitabine, day 3
[9] = 31° C., 10 μM decitabine, day 5
[10] = 31° C., 10 μM decitabine, day 7
[11] = 34° C., 1 μM decitabine, day 10
[12] = 34° C., 5 μM decitabine, day 10
[13] = 34° C., 10 μM decitabine, day 0
[14] = 34° C., 10 μM decitabine, day 3
[15] = 34° C., 10 μM decitabine, day 5
[16] = 34° C., 10 μM decitabine, day 7

Compound: Nc1ncn([C@H]2C[C@H](O)[C@@H](CO)O2)c(=O)n1 [decitabine, 5-aza-2′-deoxycytidine]
- Titer of IL-1R-II ([1]; day 0): 0.0 mg/L
- Productivity ([1]; day 2): 12.2 pg of IL-1RII/cell/day
- Titer of IL-1R-II ([1]; day 2): 58.5 mg/L
- Productivity ([1]; day 5): 13.3 pg of IL-1RII/cell/day
- Titer of IL-1R-II ([1]; day 5): 148.5 mg/L
- Productivity ([1]; day 7): 14.1 pg of IL-1RII/cell/day
- Titer of IL-1R-II ([1]; day 7): 197.5 mg/L
- Productivity ([1]; day 9): 14.9 pg of IL-1RII/cell/day
- Titer of IL-1R-II ([1]; day 9): 238.4 mg/L
- viability at 0 day, 1 μM ([2]; 31° C.): 96.1%
- viability at 3 day, 1 μM ([2]; 31° C.): 93.4%
- viability at 5 day, 1 μM ([2]; 31° C.): 94.8%
- viability at 7 day, 1 μM ([2]; 31° C.): 87.7%
- viability at 10 day, 1 μM ([2]; 31° C., day 10): 63.9%
- viability at 0 day, 5 μM ([2]; 31° C.): 96.1%
- viability at 3 day, 5 μM ([2]; 31° C.): 93.6%
- viability at 5 day, 5 μM ([2]; 31° C.): 84.6%
- viability at 7 day, 5 μM ([2]; 31° C.): 77.7%
- viability at 10 day, 5 μM ([2]; 31° C., day 10): 58.5%
- viability at 0 day, 10 μM ([2]; 31° C., 10 μM decitabine): 96.1%
- viability at 3 day, 10 μM ([2]; 31° C., 10 μM decitabine): 94.5%
- viability at 5 day, 10 μM ([2]; 31° C., 10 μM decitabine): 80.8%
- viability at 7 day, 10 μM ([2]; 31° C., 10 μM decitabine): 72.5%
- viability at 10 day, 10 μM [2, 4]: 50.6%
- viability at 0 day, 1 μM ([2]; 34° C.): 96.1%
- viability at 3 day, 1 μM ([2]; 34° C.): 93.6%
- viability at 5 day, 1 μM ([2]; 34° C.): 91.5%
- viability at 7 day, 1 μM ([2]; 34° C.): 55%
- viability at 10 day, 1 μM ([2]; 34° C., day 10): 21.4%
- viability at 0 day, 5 μM ([2]; 34° C.): 96.1%
- viability at 3 day, 5 μM ([2]; 34° C.): 96.1%
- viability at 5 day, 5 μM ([2]; 34° C.): 80.3%
- viability at 7 day, 5 μM ([2]; 34° C.): 62.7%
- viability at 10 day, 5 μM ([2]; 34° C., day 10): 33.3%
- viability at 0 day, 10 μM ([2]; 34° C., 10 μM decitabine): 96.1%
- viability at 3 day, 10 μM ([2]; 34° C., 10 μM decitabine): 93.6%
- viability at 5 day, 10 μM ([2]; 34° C., 10 μM decitabine): 75.3%
- viability at 7 day, 10 μM ([2]; 34° C., 10 μM decitabine): 43.9%
- Cumulative Viable Cell Density ([3]; 31° C., 1 μM decitabine, day 0): 0 mL⁻¹ day⁻¹
- Viable Cell Density ([3]; 31° C., 1 μM decitabine, day 0): 1.8e+06 mL⁻¹
- Cumulative Viable Cell Density ([3]; 31° C., 1 μM decitabine, day 3): 8.3e+06 mL⁻¹ day⁻¹
- Viable Cell Density ([3]; 31° C., 1 μM decitabine, day 3): 3.7e+06 mL⁻¹
- Cumulative Viable Cell Density ([3]; 31° C., 1 μM decitabine, day 5): 1.7e+07 mL⁻¹ day⁻¹
- Viable Cell Density ([3]; 31° C., 1 μM decitabine, day 5): 5e+06 mL⁻¹
- Cumulative Viable Cell Density ([3]; 31° C., 1 μM decitabine, day 7): 2.77e+07 mL⁻¹ day⁻¹
- Viable Cell Density ([3]; 31° C., 1 μM decitabine, day 7): 5.7e+06 mL⁻¹
- Cumulative Viable Cell Density [3, 5]: 4.38e+07 mL⁻¹ day⁻¹
- Viable Cell Density [3, 5]: 5.1e+06 mL⁻¹
- Cumulative Viable Cell Density ([3]; 31° C., 5 μM decitabine, day 0): 0 mL⁻¹ day⁻¹
- Viable Cell Density ([3]; 31° C., 5 μM decitabine, day 0): 1.8e+06 mL⁻¹
- Cumulative Viable Cell Density ([3]; 31° C., 5 μM decitabine, day 3): 8.5e+06 mL⁻¹ day⁻¹
- Viable Cell Density ([3]; 31° C., 5 μM decitabine, day 3): 3.8e+06 mL⁻¹
- Cumulative Viable Cell Density ([3]; 31° C., 5 μM decitabine, day 5): 1.57e+07 mL⁻¹ day⁻¹
- Viable Cell Density ([3]; 31° C., 5 μM decitabine, day 5): 3.5e+06 mL⁻¹
- Cumulative Viable Cell Density ([3]; 31° C., 5 μM decitabine, day 7): 2.28e+07 mL⁻¹ day⁻¹
- Viable Cell Density ([3]; 31° C., 5 μM decitabine, day 7): 3.6e+06 mL⁻¹
- Cumulative Viable Cell Density [3, 6]: 4e+07 mL⁻¹ day⁻¹
- Viable Cell Density [3, 6]: 7.8e+06 mL⁻¹
- Cumulative Viable Cell Density [3, 7]: 0 mL⁻¹ day⁻¹
- Viable Cell Density [3, 7]: 1.8e+06 mL⁻¹
- Cumulative Viable Cell Density [3, 8]: 7.4e+06 mL⁻¹ day⁻¹
- Viable Cell Density [3, 8]: 3.1e+06 mL⁻¹
- Cumulative Viable Cell Density [3, 9]: 1.44e+07 mL⁻¹ day⁻¹
- Viable Cell Density [3, 9]: 3.9e+06 mL⁻¹
- Cumulative Viable Cell Density [3, 10]: 2.15e+07 mL⁻¹ day⁻¹
- Viable Cell Density [3, 10]: 3.3e+06 mL⁻¹
- Cumulative Viable Cell Density [3, 4]: 3.18e+07 mL⁻¹ day⁻¹
- Viable Cell Density [3, 4]: 3.6e+06 mL⁻¹
- Cumulative Viable Cell Density ([3]; 34° C., 1 μM decitabine, day 0): 0 mL⁻¹ day⁻¹
- Viable Cell Density ([3]; 34° C., 1 μM decitabine, day 0): 1.8e+06 mL⁻¹
- Cumulative Viable Cell Density ([3]; 34° C., 1 μM decitabine, day 3): 1.14e+07 mL⁻¹ day⁻¹
- Viable Cell Density ([3]; 34° C., 1 μM decitabine, day 3): 5.7e+06 mL⁻¹
- Cumulative Viable Cell Density ([3]; 34° C., 1 μM decitabine, day 5): 2.55e+07 mL⁻¹ day⁻¹
- Viable Cell Density ([3]; 34° C., 1 μM decitabine, day 5): 8.4e+06 mL⁻¹
- Cumulative Viable Cell Density ([3]; 34° C., 1 μM decitabine, day 7): 4.15e+07 mL⁻¹ day⁻¹
- Viable Cell Density ([3]; 34° C., 1 μM decitabine, day 7): 7.6e+06 mL⁻¹
- Cumulative Viable Cell Density [3, 11]: 5.69e+07 mL⁻¹ day⁻¹
- Viable Cell Density [3, 11]: 2.7e+06 mL⁻¹
- Cumulative Viable Cell Density ([3]; 34° C., 5 μM decitabine, day 0): 0 mL⁻¹ day⁻¹
- Viable Cell Density ([3]; 34° C., 5 μM decitabine, day 0): 1.8e+06 mL⁻¹
- Cumulative Viable Cell Density ([3]; 34° C., 5 μM decitabine, day 3): 1.16e+07 mL⁻¹ day⁻¹
- Viable Cell Density ([3]; 34° C., 5 μM decitabine, day 3): 5.9e+06 mL⁻¹
- Cumulative Viable Cell Density ([3]; 34° C., 5 μM decitabine, day 5): 2.47e+07 mL⁻¹ day⁻¹
- Viable Cell Density ([3]; 34° C., 5 μM decitabine, day 5): 7.2e+06 mL⁻¹
- Cumulative Viable Cell Density ([3]; 34° C., 5 μM decitabine, day 7): 3.81e+07 mL⁻¹ day⁻¹
- Viable Cell Density ([3]; 34° C., 5 μM decitabine, day 7): 6.3e+06 mL⁻¹
- Cumulative Viable Cell Density [3, 12]: 5.27e+07 mL⁻¹ day⁻¹
- Viable Cell Density [3, 12]: 3.4e+06 mL⁻¹
- Cumulative Viable Cell Density [3, 13]: 0 mL⁻¹ day⁻¹
- Viable Cell Density [3, 13]: 1.8e+06 mL⁻¹
- Cumulative Viable Cell Density [3, 14]: 9.8e+06 mL⁻¹ day⁻¹
- Viable Cell Density [3, 14]: 4.7e+06 mL⁻¹
- Cumulative Viable Cell Density [3, 15]: 1.93e+07 mL⁻¹ day⁻¹
- Viable Cell Density [3, 15]: 4.8e+06 mL⁻¹
- Cumulative Viable Cell Density [3, 16]: 2.73e+07 mL⁻¹ day⁻¹
- Viable Cell Density [3, 16]: 3.2e+06 mL⁻¹
